Measurements taken from US7531555B2, “Compositions and methods for selective inhibition of nicotine acetylcholine receptors” (University of Florida Research Foundation, Inc., priority 2003, dated 2009).
Like-named read-outs stand apart in the source and are kept apart here.

What was measured:
Format in all cases: cell-based
Rat α3β2β3 = molecular target: T1, Rat α3β2β3 (Rattus norvegicus, UniProt P04757+P12390+P12391); assay: Voltage clamp of Xenopus oocytes expressing α3β2β3 nAChR
T1 construct: expressed in transfected cells; host or cells: Xenopus laevis oocytes injected with subunit cRNAs; clones from Dr. Jim Boulter (UCLA)
T1 sequence (P04757 26-499): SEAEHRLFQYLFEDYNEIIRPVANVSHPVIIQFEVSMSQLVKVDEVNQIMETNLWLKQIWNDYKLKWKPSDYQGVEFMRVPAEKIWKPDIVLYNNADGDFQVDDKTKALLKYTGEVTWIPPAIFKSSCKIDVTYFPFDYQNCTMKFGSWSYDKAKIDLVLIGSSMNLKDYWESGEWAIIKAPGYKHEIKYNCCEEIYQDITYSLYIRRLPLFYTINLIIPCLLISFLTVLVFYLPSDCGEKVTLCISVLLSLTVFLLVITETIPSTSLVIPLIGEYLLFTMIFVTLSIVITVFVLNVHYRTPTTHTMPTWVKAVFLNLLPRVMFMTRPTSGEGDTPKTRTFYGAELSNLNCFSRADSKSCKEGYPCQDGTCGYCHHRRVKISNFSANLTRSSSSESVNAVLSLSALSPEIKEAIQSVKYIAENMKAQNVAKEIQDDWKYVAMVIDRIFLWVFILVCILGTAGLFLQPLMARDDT
T1 sequence (P12390 25-500): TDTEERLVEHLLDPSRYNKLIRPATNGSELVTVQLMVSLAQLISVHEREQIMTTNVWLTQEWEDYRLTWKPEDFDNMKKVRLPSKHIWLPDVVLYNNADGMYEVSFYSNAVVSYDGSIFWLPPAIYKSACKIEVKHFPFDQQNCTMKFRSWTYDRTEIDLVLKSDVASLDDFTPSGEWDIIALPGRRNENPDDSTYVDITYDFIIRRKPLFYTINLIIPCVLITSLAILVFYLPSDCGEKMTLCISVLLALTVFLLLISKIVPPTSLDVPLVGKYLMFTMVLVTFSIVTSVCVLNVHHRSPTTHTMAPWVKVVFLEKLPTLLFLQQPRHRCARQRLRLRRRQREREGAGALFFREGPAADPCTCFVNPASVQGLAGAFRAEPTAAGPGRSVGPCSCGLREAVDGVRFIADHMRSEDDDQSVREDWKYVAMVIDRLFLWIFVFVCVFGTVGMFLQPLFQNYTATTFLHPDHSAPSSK
T1 sequence (P12391 31-464): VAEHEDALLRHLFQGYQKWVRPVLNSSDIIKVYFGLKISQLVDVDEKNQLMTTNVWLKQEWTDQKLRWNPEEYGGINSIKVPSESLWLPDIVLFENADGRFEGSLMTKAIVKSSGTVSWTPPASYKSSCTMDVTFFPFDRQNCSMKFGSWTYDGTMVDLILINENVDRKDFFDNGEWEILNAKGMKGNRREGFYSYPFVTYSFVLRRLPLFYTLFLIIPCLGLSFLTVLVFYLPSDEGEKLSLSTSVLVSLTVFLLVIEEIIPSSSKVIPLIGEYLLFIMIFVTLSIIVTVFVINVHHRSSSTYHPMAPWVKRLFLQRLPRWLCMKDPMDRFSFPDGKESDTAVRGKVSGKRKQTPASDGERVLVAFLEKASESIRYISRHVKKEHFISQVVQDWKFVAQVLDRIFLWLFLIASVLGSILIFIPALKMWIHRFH
Experimental: (§1) Mature (>9 cm) female Xenopus laevis African frogs (NASCO, Ft. Atkinson, Wis.) were used as a source of oocytes. Prior to surgery, frogs were anesthetized by placing the animal in a 1.5 g/l solution of MS222 (3-aminobenzoic acid ethyl ester) for 30 minutes. Oocytes were removed from an incision made in the abdomen.
(§2) In order to remove the follicular cell layer, harvested oocytes were treated with 1.25 mg/ml collagenase from Worthington Biochemical Corporation (Freehold, N.J.) for 2 hours at room temperature in calcium-free Barth's solution (88 mM NaCl, 10 mM HEPES pH 7.6, 0.33 mM MgSO4, 0.1 mg/ml gentamicin sulfate). Subsequently, stage 5 oocytes were isolated and injected with 50 nl (5-20 ng) each of the appropriate subunit cRNAs. Recordings were made 2 to 15 days after injection.
(§3) Rat neuronal nAChR clones and mouse muscle nAChR cDNA clones were used. The wild-type clones were obtained from Dr. Jim Boulter (UCLA). The rat α6/3 (Dowell et al. J Neurosci, 2003, 23:8445-8452) clone was obtained from Michael McIntosh (University of Utah) and expressed in Xenopus oocytes in combinations with rat β2 and β3. […] The TM2 domain is understood to line the pore of the channel, with alpha helix structure. The 7′ position may actually be directed away from the actual pore lining, but this residue is highly conserved in all of the nAChR. It is valine in all of them except α9 (isoleucine) and β1, where it is alanine. The TM2 mutation in the α6/3 chimera was corrected by using QuickChange (Stratagene) according to their protocols. The corrected α6/3 chimera sequence was confirmed by restriction diagnostics and by automated fluorescent sequencing (University of Florida core facility). The corrected clone was expressed as above in Xenopus oocytes with β2 and β3 and compared to the wild-type α3 co-expressed with β2 and β3.
(§4) After linearization and purification of cloned cDNAs, RNA transcripts were prepared in vitro using the appropriate mMessage mMachine kit from Ambion Inc. (Austin, Tex.).
(§5) Electrophysiology. The majority of experiments were conducted using OpusXpress 6000A (Axon Instruments, Union City Calif.). OpusXpress is an integrated system that provides automated impalement and voltage clamp of up to eight oocytes in parallel. Cells were automatically perfused with bath solution, and agonist solutions were delivered from a 96-well plate. Both the voltage and current electrodes were filled with 3 M KCl. The agonist solutions were applied via disposable tips, which eliminated any possibility of cross-contamination. Drug applications alternated between ACh controls and experimental applications. Flow rates were set at 2 ml/min for experiments with α7 receptors and 4 ml/min for other subtypes. Cells were voltage-clamped at a holding potential of −60 mV. Data were collected at 50 Hz and filtered at 20 Hz. Agonist applications were 12 seconds in duration followed by 181-second washout periods for α7 receptors and 8 seconds with 241-second wash periods for other subtypes. For some experiments, particularly under conditions where residual inhibition precluded making repeated measurements from single cells (see below), manual oocyte recordings were made as previously described (Papke and Papke Br J of Pharmacol, 2002, 137:49-61). In brief, Warner Instruments (Hamden, Conn.) OC-725C oocyte amplifiers were used, and data were acquired with a minidigi or digidata 1200A with pClamp9 software (Axon Instruments). Sampling rates were between 10 and 20 Hz and the data were filtered at 6 Hz. […]

Human α3β2α5 = molecular target: T2, Human α3β2α5 (Homo sapiens, UniProt P17787+P30532+P32297); assay: Voltage clamp of Xenopus oocytes expressing human α3β2α5 nAChR
T2 construct: expressed in transfected cells; host or cells: Xenopus laevis oocytes injected with subunit cRNAs
T2 sequence (P32297 32-505): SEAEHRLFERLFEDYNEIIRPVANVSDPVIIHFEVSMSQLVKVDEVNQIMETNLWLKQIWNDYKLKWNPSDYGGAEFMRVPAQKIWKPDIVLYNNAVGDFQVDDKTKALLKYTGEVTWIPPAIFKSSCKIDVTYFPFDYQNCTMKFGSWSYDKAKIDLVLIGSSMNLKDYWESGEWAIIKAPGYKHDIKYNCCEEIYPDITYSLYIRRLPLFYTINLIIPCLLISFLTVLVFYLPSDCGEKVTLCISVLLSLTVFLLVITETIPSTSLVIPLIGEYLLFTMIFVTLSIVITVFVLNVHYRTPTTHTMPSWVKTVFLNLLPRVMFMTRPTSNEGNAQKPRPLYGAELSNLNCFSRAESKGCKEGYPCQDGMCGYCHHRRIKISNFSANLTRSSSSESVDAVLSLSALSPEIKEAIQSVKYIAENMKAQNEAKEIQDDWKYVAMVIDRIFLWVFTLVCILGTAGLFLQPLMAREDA
T2 sequence (P17787 26-502): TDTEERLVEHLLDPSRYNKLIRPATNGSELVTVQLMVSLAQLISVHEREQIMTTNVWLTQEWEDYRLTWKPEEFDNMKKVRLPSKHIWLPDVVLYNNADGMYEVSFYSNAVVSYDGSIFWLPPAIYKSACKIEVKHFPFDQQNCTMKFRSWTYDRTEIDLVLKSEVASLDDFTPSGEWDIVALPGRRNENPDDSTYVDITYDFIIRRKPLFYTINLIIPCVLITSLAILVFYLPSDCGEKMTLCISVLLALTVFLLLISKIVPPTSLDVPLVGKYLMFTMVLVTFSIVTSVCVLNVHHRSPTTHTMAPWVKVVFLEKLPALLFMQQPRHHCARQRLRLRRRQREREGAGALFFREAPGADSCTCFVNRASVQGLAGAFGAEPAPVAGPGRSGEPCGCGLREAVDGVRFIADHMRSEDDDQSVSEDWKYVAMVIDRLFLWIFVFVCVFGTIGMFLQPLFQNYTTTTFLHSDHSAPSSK
T2 sequence (P30532 23-468): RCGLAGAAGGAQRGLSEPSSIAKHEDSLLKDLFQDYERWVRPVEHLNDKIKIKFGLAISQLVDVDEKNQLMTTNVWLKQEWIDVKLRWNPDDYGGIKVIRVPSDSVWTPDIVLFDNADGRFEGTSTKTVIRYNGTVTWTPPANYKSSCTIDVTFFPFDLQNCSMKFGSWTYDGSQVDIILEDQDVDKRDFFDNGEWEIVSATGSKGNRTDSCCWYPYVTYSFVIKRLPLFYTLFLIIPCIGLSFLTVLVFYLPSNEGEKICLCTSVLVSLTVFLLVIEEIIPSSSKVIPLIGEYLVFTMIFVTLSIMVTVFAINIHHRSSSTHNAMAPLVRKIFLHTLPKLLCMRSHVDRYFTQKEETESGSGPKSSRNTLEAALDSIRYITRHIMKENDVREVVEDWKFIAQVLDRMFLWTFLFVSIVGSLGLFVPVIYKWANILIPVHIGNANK
Experimental: as §1, §2, §4
as §5, with “137:49-61).” for “137:49-61). In brief, Warner Instruments (Hamden, Conn.) OC-725C oocyte amplifiers were used, and data were acquired with a minidigi or digidata 1200A with pClamp9 software (Axon Instruments). Sampling rates were between 10 and 20 Hz and the data were filtered at 6 Hz.”
Experimental protocols and data analysis. […] In other experiments (Papke et al. J. Neurochem., 2000, 75:204-216; Papke and Papke Br J of Pharmacol, 2002, 137:49-61) these concentrations were determined to be the EC74, EC15, EC22, EC17, EC40, EC70, EC55, EC70 and EC100, respectively. […]
Responses to experimental drug applications were calculated relative to the preceding ACh control responses in order to normalize the data, compensating for the varying levels of channel expression among the oocytes. […]

[1] = molecular target: T3, α7 homomeric neuronal nAChR (Rattus norvegicus, UniProt Q05941); assay: Voltage clamp of Xenopus oocytes expressing α7 nAChR
T3 construct: expressed in transfected cells; host or cells: Xenopus laevis oocytes injected with cRNA; clone from Dr. Jim Boulter (UCLA)
T3 sequence (Q05941 23-502): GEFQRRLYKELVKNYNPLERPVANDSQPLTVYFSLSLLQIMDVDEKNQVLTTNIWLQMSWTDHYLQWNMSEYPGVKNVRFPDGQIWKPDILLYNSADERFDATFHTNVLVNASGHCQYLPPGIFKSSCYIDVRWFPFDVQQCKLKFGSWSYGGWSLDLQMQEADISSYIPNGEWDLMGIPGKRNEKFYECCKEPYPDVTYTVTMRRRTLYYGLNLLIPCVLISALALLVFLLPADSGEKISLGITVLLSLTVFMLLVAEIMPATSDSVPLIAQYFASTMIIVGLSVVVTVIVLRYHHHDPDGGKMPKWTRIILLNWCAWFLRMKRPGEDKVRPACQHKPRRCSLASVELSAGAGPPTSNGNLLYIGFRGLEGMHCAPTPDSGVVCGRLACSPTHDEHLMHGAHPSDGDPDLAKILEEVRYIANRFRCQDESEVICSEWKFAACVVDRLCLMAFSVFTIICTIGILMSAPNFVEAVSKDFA
Experimental: as §1, §2, §3, §4
(§6) Electrophysiology. The majority of experiments were conducted using OpusXpress 6000A (Axon Instruments, Union City Calif.). OpusXpress is an integrated system that provides automated impalement and voltage clamp of up to eight oocytes in parallel. Cells were automatically perfused with bath solution, and agonist solutions were delivered from a 96-well plate. Both the voltage and current electrodes were filled with 3 M KCl. The agonist solutions were applied via disposable tips, which eliminated any possibility of cross-contamination. Drug applications alternated between ACh controls and experimental applications. Flow rates were set at 2 ml/min for experiments with α7 receptors and 4 ml/min for other subtypes. Cells were voltage-clamped at a holding potential of −60 mV. Data were collected at 50 Hz and filtered at 20 Hz. Agonist applications were 12 seconds in duration followed by 181-second washout periods for α7 receptors and 8 seconds with 241-second wash periods for other subtypes. For some experiments, particularly under conditions where residual inhibition precluded making repeated measurements from single cells (see below), manual oocyte recordings were made as previously described (Papke and Papke Br J of Pharmacol, 2002, 137:49-61). In brief, Warner Instruments (Hamden, Conn.) OC-725C oocyte amplifiers were used, and data were acquired with a minidigi or digidata 1200A with pClamp9 software (Axon Instruments). Sampling rates were between 10 and 20 Hz and the data were filtered at 6 Hz. Cells were voltage clamped at a holding potential of −50 mV.
(§7) Experimental protocols and data analysis. Each oocyte received two initial control applications of ACh, an experimental drug application (or co-application of ACh and TMPH), and then follow-up control application(s) of ACh. The control ACh concentrations for α1β1γδ, α3β4, α4β2, α3β2, α3β2α5, α3β2β3, α6/3β2β3 α6β4β3 and α7, receptors were 30 μM, 100 μM, 10 μM, 30 μM, 1 μM 100 μM 100 μM 100 μM and 300 μM, respectively. […]

Rat α3β4 = molecular target: T4, Rat α3β4 (Rattus norvegicus, UniProt P04757+P12392); assay: Voltage clamp of Xenopus oocytes expressing α3β4 nAChR
T4 construct: expressed in transfected cells; host or cells: Xenopus laevis oocytes injected with subunit cRNAs; clones from Dr. Jim Boulter (UCLA)
T4 sequence (P04757 26-499): as the sequence (P04757 26-499) above
T4 sequence (P12392 21-495): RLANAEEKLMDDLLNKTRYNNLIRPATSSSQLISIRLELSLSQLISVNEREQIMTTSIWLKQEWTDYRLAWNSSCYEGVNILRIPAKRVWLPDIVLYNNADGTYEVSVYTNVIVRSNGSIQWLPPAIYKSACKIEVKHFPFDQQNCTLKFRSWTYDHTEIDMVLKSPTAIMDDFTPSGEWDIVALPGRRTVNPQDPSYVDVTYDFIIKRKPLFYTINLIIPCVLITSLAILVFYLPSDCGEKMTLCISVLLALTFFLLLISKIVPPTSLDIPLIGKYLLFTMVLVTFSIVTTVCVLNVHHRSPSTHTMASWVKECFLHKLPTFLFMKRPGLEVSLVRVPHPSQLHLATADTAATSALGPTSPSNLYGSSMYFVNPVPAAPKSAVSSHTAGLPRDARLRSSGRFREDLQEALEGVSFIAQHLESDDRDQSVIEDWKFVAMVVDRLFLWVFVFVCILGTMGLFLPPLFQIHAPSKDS
Experimental: as §1, §2, §3, §4, §6, §7

[2] = decrease in net charge, 100 μM ACh co-applied with TMPH, read-out: IC50 (area)
[3] = decrease in peak current amplitude, 100 μM ACh co-applied with TMPH, read-out: IC50 (peak)
[4] = inhibition still present after 5-minute wash, read-out: IC50 (recovery)

CCCCCCC(=O)OC1CC(C)(C)NC(C)(C)C1 [TMPH, 2,2,6,6-tetramethylpiperidin-4-yl heptanoate]
IC50 (Rat α3β2β3; [2]): 2700 ± 600 nM
IC50 (Rat α3β2β3; [3]): 120000 ± 80000 nM
IC50 (Rat α3β2β3; [4]): 4300 ± 1500 nM
IC50 net charge/IC50 peak (Rat α3β2β3; ratio): 0.025
IC50 recovery/IC50 net charge (Rat α3β2β3; ratio): 1.6
IC50 (Human α3β2α5; decrease in net charge, 1 μM ACh co-applied with TMPH, read-out: IC50 (area)): 430 ± 180 nM
IC50 (Human α3β2α5; decrease in peak current amplitude, 1 μM ACh co-applied with TMPH, read-out: IC50 (peak)): 1100 nM
IC50 (Human α3β2α5; [4]): 750 ± 200 nM
IC50 recovery/IC50 net charge (Human α3β2α5; ratio): 1.7
reversibility of inhibition ([1]; after a 5-minute wash): significant recovery
IC50 ([1]; decrease in net charge, 300 μM ACh co-applied with TMPH, read-out: IC50 (area)): 1200 ± 200 nM
IC50 ([1]; decrease in peak current amplitude, 300 μM ACh co-applied with TMPH, read-out: IC50 (peak)): 1000 ± 100 nM
IC50 [1, 4]: 16000 ± 4000 nM
IC50 net charge/IC50 peak ([1]; ratio): 1.2
IC50 recovery/IC50 net charge ([1]; ratio): 13.3
reversibility of inhibition (Rat α3β4; after a 5-minute wash): persisted after the wash
IC50 (Rat α3β4; [2]): 75 ± 23 nM
IC50 (Rat α3β4; [3]): 200 ± 50 nM
IC50 (Rat α3β4; [4]): 85 ± 32 nM
IC50 net charge/IC50 peak (Rat α3β4; ratio): 0.36
IC50 recovery/IC50 net charge (Rat α3β4; ratio): 1.1
